Target: T1, Type-2 angiotensin II receptor (Homo sapiens, UniProt P50052)
T1 sequence (P50052 whole entry): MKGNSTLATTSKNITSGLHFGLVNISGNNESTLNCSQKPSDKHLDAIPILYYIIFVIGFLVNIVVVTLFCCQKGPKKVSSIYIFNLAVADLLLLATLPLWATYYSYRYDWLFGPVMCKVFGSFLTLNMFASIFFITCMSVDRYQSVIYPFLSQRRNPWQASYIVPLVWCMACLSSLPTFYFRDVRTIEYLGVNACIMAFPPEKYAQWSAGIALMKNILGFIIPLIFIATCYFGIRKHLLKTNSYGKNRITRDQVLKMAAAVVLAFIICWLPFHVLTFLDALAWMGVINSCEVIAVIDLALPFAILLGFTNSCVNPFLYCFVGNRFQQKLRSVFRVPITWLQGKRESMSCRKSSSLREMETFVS
Test: Displacement of [125-I]-[Sar1, Ile8] from recombinant human AT2R transfected in human HEK293 cells incubated for 2 hrs by liquid scintillation counter analysis

H-DRVYIYPF-OH
IC50: 4 nM
